Assays:
ALPK1 [1] = target: T1, ALPK1 (Homo sapiens, UniProt Q96QP1); experiment: In vitro kinase assay of ALPK1-dependent TIFA phosphorylation; format: biochemical
Procedure: We performed an in vitro kinase assay with H1b-ADP and H1b-ADP-6L along with ALPK1 protein (2 nM), and TIFA protein (1.6 uM) in kinase buffer containing 50 uM ATP. TIFA phosphorylation was analyzed by denaturing gel electrophoresis followed by western blotting using an anti-phosphothreonine antibody. H1b-ADP or H1b-ADP-6L was added at 2 nM, 0.4 nM, 80 pM, 16 pM, and 3 pM.
To test this, we performed an in vitro kinase reaction for ALPK1-dependent TIFA phosphorylation in the presence of either HBP or HIdA purified from E. coli containing inactivated HIdE, or in the presence of HBP and HIdA purified from the same HIdE wild-type E. coli used in the previous experiments. Phosphorylated TIFA (three concentrations, 1%, 0.2% and […]) was detected as described above by denaturing gel electrophoresis followed by Western analysis.

ALPK1 [2] = target: T1, ALPK1; experiment: IL-8 and TNFα mRNA expression in HEK293 cells with control or ALPK1-directed siRNA (qPCR); format: cell-based; parameters: silence ALPK1 expression in HEK293 cells; endogenous in cells; host or cells: HEK293; details: control vs ALPK1-directed siRNA, 4 hours, HBP 500, 100, 20 uM, HMP-1bP 500, 100 uM, H1b-ADP 100, 20, 4, 0.8 nM
Procedure: To test whether HBP, HMP-1bP, and H1b-ADP were able to induce cytokine expression in an ALPK1 dependent manner, we used an ALPK1-directed small interfering RNA (siRNA) to silence ALPK1 expression in HEK293 cells. Cells were plated (1×10^4 cells/well) into 96-well plates and transfected with either control siRNA or ALPK1-directed siRNA according to the manufacturer's protocols (Lipofectamine™ RNAiMax™, Invitrogen 13778075). Following 2 days of culture, either (1) HBP (500 uM, 100 uM, 20 uM, FIG. 2A-2B) (2) HMP-1bP (500 uM, 100 uM, FIG. 3A-3B), (3) H1b-ADP (100 nM, 20 nM, 4 nM, 0.8 nM, FIG. 4A-4B) was added to culture medium and cells were harvested 4 hours later.

ALPK1 [3] = target: T1, ALPK1; experiment: Cell-free kinase assay of ALPK1 autophosphorylation (Western, anti-phospho-threonine); format: biochemical; details: 2 nM ALPK1 with ATP, 25° C., 1 h; H1b-ADP 10, 1, 0.2 nM; HBP and HMP-1bP 1, 10, 100 nM
Procedure: ALPK1 activation results in its autophosphorylation. Accordingly, we next asked whether the binding of H1b-ADP to ALPK1 was sufficient to induce ALPK1 autophosphorylation. Phosphorylation assays were performed according to standard protocols. Briefly, ALPK1 was incubated (2 nM, 25° C., 1 h) in assay buffer (20 μl, 25 mM HEPES pH 7.5, 50 mM KCl, 0.1 mM EDTA, 0.1 mM EGTA, 2 mM DTT, 1.5 mM CaCl2, 10 mM MgCl2) with ATP and chemically synthesized HBP, HMP-1bP, or H1b-ADP followed by denaturing gel electrophoresis and Western analysis with an anti-phospho-threonine antibody (CST) to detect autophosphorylation of ALPK1. […] The range of concentrations of HBP and HMP-1bP used in this assay (1 nM, 10 nM, 100 nM) was 10-fold higher than that used for H1b-ADP.

T1 sequence (Q96QP1 whole entry): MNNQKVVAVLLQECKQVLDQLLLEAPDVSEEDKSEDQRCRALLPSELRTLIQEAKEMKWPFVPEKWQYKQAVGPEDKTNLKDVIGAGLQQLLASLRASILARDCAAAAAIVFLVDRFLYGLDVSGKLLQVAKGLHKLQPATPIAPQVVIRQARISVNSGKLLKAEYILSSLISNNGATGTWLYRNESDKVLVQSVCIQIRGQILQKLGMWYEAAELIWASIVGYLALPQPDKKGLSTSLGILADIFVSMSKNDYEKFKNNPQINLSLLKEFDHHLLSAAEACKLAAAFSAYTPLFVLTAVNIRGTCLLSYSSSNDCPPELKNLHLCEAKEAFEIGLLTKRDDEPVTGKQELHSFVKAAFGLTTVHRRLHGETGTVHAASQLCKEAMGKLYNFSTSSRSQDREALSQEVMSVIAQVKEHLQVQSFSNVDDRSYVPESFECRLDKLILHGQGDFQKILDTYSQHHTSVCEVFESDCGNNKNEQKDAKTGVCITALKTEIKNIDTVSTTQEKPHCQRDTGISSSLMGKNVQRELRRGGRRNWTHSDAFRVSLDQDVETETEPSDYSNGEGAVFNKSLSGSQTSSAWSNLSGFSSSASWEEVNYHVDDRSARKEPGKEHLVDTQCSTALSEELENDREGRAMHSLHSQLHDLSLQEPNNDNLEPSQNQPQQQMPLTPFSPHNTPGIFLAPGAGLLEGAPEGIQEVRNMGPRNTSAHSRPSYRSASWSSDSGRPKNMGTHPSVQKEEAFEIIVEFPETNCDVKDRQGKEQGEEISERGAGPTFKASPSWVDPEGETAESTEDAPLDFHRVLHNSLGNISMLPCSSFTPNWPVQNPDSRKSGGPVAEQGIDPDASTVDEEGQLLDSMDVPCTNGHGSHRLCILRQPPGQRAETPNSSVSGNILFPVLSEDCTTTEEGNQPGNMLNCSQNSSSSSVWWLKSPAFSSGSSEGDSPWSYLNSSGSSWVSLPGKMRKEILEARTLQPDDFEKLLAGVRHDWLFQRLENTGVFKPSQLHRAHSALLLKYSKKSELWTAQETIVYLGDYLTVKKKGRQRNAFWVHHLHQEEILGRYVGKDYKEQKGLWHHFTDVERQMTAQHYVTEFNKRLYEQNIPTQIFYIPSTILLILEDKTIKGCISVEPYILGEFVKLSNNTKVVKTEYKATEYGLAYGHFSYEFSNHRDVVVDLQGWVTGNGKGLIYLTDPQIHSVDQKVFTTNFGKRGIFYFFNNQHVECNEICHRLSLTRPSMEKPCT

Compound: Nc1ncnc2c1ncn2[C@@H]1O[C@H](COP(=O)(O)OP(=O)(O)O[C@@H]2O[C@H]([C@H](O)CO)[C@@H](O)[C@H](O)[C@@H]2O)[C@@H](O)[C@H]1O [Compound H1b-ADP, D-glycero-D-manno-heptose-1β-ADP]
- TIFA phosphorylation (ALPK1 [1]; ALPK1 2 nM, TIFA 1.6 uM, 50 uM ATP, compound 2 nM, 0.4 nM, 80 pM, 16 pM, 3 pM): phosphorylation of the ALPK1 substrate TIFA
- IL-8 mRNA expression (ALPK1 [2]): increased in an ALPK1-dependent manner
- TNFα mRNA expression (ALPK1 [2]): increased in an ALPK1-dependent manner
- autophosphorylation of ALPK1 (ALPK1 [3]): phosphorylation of ALPK1 was detected only in the presence of H1b-ADP

Compound: O=P(O)(O)O[C@@H]1O[C@H]([C@H](O)CO)[C@@H](O)[C@H](O)[C@@H]1O [HMP-1bP, D-glycero-β-D-manno-heptose-1-phosphate]
- phosphorylation of the ALPK1 substrate TIFA (ALPK1 [1]; FIG. 7, chemically-synthesized compounds): TIFA is phosphorylated only in the presence of H1b-ADP
- IL-8 mRNA expression (ALPK1 [2]): increased in an ALPK1-dependent manner
- TNFα mRNA expression (ALPK1 [2]): increased in an ALPK1-dependent manner
- autophosphorylation of ALPK1 (ALPK1 [3]): not HBP or HMP-1bP induces ATP-dependent autophosphorylation
